Experimental data taken from ChEMBL document CHEMBL1201862, “PubChem BioAssay data set” (2004).
The source made the active and inactive calls.

Experiments:
[1] = target: T1, Mannose-6-phosphate isomerase (Homo sapiens, UniProt P34949); assay: MPI inhibition at elevated mannose 6-phosphate – biochemical, fluorescence intensity, high mannose 6-phosphate, primary screen (AID 1220)
T1 sequence (P34949 whole entry): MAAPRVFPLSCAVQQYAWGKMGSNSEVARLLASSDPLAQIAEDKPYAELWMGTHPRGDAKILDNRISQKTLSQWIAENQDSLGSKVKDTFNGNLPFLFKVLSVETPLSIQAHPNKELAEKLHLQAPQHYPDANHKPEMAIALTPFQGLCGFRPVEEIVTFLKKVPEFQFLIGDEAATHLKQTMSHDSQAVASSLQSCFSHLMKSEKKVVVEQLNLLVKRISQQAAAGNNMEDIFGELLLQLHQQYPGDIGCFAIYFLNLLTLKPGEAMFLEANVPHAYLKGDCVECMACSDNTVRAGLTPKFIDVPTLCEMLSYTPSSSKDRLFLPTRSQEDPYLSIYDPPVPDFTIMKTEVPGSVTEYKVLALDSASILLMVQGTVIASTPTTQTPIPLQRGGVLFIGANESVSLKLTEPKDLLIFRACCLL

[2] = target: Eukaryotic translation initiation factor 4E (Mus musculus, UniProt P63073); assay: blockers of eIF4G binding by eIF4E – biochemical, TR-FRET, dose response (AID 855); format: functional;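 further: potency for disrupting eIF4E binding to eIF4GI seen as loss of FRET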
[3] = general mammalian cell viability loss – inhibitor set, cherry-pick, set 2, cytotoxicity control for miR-122 modulator project, dose response (AID 720697); format: functional, cell-based
[4] = target: T2, High affinity choline transporter 1 (Homo sapiens, UniProt Q9GZV3); assay: human choline transporter blockers, potency – cell-based, 5-point CRC, membrane potential dye, dose response (AID 504840); format: functional
T2 sequence (Q9GZV3 whole entry): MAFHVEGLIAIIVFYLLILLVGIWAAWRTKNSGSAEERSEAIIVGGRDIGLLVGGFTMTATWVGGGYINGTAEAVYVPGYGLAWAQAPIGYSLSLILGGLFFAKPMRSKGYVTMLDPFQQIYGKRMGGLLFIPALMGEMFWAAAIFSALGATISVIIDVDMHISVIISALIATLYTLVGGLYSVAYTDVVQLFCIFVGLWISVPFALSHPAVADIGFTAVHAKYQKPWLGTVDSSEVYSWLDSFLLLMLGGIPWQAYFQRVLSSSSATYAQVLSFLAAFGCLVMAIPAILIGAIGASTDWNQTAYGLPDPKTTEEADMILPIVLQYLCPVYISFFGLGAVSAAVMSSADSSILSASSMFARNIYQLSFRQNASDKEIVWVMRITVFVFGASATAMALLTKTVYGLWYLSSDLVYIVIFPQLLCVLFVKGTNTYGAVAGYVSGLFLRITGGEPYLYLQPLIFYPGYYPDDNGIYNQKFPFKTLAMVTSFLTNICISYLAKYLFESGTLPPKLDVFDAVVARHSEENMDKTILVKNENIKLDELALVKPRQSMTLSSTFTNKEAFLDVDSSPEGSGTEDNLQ

[5] = target: T3, Low molecular weight phosphotyrosine protein phosphatase (Homo sapiens, UniProt P24666); format: functional; conditions: read-out: IC50_Mean;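 further: Dose-response confirmation assay measuring inhibition of LMPTP enzyme activity by fluorescence intensity read-out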
T3 sequence (P24666 whole entry): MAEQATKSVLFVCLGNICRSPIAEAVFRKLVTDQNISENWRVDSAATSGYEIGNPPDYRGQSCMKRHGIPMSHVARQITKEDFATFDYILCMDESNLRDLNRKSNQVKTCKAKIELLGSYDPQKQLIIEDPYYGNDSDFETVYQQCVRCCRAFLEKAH

[6] = blockers of bursicon-stimulated LGR2 cAMP reporter – cell-based, HEK293, CRE-luciferase reporter, cherry pick, set 2, dose response (AID 743343); format: functional;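 further: transfected cells were stimulated with diluted bursicon conditioned medium after compound addition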
[7] = A549 cell cytotoxicity, dose response, cytotoxicity control, plate reader, cherry-pick, antagonist series (AID 743412); format: functional, cell-based
[8] = target: T4, Heat shock factor protein 1 (Mus musculus, UniProt P38532); assay: enhancement of HSF1-driven luciferase signal – cell-based, NIH3T3, luminescence, dose retest, confirmation (AID 435004); format: functional;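 further: stress induced by proteasome inhibitor MG132 added 30 min after compound; luciferase reporter driven by HSF1 response element in NIH3T3 cells; actives raise luminescence as potentiators of the MG132 stress response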
T4 sequence (P38532 whole entry): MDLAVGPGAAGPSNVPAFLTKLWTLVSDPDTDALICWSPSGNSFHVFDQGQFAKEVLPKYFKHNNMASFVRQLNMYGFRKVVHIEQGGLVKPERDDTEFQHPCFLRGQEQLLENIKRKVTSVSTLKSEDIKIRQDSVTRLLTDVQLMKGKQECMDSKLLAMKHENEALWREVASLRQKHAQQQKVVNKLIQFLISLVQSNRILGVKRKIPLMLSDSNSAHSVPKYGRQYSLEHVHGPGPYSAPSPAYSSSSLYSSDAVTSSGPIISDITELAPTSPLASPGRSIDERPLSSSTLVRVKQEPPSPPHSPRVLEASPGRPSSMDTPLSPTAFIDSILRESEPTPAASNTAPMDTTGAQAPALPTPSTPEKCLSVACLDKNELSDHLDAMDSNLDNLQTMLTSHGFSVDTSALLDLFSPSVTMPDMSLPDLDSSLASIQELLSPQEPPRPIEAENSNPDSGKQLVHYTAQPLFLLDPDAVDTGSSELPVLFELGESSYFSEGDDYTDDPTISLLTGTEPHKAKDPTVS

[9] = blockade of melanocortin 4 receptor signaling – cell-based, plate reader, cherry pick, counter-screen for LGR2 antagonist project, dose response (AID 743444); format: functional;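 further: transfected HEK 293 cells stimulated with alpha-MSH peptide; potency of inhibitors of the alpha-MSH evoked signal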
[10] = target: Genome polyprotein (dengue virus type 2, UniProt P29990); assay: flavivirus cap methylation enzyme inhibition – biochemical, confirmation dose response, primary screen (AID 588689); format: functional
[11] = Luminescence Cell-Based Dose Retest to Confirm Inhibitors of Cancer Stem Cells. [Related pubchem assays (depositor defined):AID2717, AID2721]; format: functional; conditions: Homo sapiens
[12] = target: T5, Protein RecA (Mycobacterium tuberculosis, UniProt P9WHJ3); assay: Fluorescence Cell-Free Homogeneous Dose Retest to Identify Inhibitors of RecA-Intein Splicing Activity. [Related pubchem assays (depositor defined):AID2097, AID2223, AID489010, AID492950]; format: functional
T5 sequence (P9WHJ3 whole entry): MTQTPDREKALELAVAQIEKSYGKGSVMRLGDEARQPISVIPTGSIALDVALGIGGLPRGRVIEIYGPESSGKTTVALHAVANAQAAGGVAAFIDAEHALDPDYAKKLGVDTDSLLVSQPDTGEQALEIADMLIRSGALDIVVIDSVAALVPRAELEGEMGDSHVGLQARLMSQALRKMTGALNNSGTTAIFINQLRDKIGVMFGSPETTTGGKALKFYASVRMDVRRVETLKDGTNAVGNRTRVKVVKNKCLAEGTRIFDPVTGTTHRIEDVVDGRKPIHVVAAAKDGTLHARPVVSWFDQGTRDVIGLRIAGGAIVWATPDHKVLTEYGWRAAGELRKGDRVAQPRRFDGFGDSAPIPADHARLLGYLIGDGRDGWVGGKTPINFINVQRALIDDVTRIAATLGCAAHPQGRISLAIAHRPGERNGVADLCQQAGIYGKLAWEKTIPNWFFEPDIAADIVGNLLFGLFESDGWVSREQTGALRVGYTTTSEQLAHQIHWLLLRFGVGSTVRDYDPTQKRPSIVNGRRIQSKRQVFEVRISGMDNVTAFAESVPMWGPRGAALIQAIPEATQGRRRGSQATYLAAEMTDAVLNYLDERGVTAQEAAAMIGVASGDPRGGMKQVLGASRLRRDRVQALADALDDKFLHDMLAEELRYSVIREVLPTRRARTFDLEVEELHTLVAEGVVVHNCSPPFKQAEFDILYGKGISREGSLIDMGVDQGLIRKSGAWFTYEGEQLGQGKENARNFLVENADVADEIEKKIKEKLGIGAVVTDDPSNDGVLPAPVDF

[13] = target: T6, Replicative DNA helicase DnaB (Mycobacterium tuberculosis, UniProt P9WMR3); assay: DnaB intein splicing inhibitors, dose response, biochemical, cell-free fluorescence (AID 449749); format: functional
T6 sequence (P9WMR3 whole entry): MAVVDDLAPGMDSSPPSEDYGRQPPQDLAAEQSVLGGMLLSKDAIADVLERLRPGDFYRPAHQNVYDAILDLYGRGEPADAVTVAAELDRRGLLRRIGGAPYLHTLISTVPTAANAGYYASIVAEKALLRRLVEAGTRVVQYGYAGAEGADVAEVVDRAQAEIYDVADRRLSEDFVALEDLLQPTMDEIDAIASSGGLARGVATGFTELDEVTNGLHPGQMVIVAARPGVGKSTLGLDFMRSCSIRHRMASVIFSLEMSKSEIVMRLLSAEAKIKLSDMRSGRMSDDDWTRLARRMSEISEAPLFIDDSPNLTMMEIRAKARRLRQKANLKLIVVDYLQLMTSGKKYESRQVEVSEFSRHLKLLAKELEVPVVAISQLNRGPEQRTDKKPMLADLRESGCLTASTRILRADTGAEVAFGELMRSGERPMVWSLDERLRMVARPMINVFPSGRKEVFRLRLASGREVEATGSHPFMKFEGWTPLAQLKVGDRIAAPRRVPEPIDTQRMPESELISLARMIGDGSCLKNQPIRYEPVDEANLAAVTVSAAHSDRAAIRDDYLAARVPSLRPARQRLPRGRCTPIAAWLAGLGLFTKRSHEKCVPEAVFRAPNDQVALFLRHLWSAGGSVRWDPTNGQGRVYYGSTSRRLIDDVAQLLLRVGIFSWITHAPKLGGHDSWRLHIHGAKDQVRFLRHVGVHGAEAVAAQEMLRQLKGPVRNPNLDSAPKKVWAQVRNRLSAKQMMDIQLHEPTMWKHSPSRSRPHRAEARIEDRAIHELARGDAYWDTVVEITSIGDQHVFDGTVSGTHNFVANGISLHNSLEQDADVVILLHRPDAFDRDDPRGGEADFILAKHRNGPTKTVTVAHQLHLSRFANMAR

[14] = Luminescence Cell-Based Dose Response HTS to Identify Inhibitors of 5'UTR Stem-Loop Driven Prion Protein mRNA Translation in H4 Neuroglioblastoma Cells. [Related pubchem assays: 1827 (Project Summary), 1813 (Primary HTS)]; format: functional
[15] = luciferase reporter signal suppression in cells – H4 neuroglioma cells, luminescence, dose response (AID 1990); format: functional, cell-based
[16] = alpha-synuclein stem-loop luciferase translation blockers – H4 neuroglioma cells, luminescence, confirmation (AID 1988); format: functional, cell-based

Sequence of Genome polyprotein (P29990 2492-3391 limits assumed): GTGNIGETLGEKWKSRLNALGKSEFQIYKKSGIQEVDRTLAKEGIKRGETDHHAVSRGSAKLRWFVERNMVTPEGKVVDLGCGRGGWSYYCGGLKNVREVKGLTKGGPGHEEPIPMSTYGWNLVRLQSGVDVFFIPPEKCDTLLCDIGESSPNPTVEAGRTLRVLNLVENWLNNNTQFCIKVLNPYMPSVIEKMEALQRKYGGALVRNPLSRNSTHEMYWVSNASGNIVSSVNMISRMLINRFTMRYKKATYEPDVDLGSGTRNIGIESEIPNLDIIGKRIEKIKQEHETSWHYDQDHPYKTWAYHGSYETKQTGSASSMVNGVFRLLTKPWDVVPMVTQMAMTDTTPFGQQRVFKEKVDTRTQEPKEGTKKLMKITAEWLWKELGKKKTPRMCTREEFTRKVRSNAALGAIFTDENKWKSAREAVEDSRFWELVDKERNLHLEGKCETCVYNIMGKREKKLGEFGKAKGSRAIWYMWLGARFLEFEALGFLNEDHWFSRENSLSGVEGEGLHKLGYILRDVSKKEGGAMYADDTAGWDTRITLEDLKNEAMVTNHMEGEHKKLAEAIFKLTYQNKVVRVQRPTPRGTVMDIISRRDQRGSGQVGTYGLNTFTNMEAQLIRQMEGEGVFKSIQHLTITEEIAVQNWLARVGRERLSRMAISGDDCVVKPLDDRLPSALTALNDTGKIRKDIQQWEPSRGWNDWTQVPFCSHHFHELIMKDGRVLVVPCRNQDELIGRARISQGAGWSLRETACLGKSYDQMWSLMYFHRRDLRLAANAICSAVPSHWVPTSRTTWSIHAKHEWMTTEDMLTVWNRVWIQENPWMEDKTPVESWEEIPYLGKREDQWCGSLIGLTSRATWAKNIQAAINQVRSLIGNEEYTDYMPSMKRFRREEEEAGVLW
Sequence of Eukaryotic translation initiation factor 4E (P63073 whole entry): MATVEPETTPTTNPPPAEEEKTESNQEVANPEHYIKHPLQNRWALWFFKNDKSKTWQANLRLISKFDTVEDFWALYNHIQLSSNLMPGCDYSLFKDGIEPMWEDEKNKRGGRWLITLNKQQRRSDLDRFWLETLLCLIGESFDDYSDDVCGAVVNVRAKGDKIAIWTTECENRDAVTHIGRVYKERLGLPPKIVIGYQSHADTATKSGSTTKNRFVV

For `Nc1nc2c(s1)CCc1c-2cnn1-c1ccccc1`, the IC50 [1] was 1.42 µM (active) and the IC50 [2] was > 64 µM (inactive).

With `CCNC(=O)Nc1ccc2c(c1)C(=O)N(C)[C@@H]1CC[C@H](CC(=O)NCC3CC3)O[C@@H]1CO2` the AC50 [3] was 0.493 µM (active).

In the case of `C/C=C/c1ccc([C@H]2[C@@H](CO)N(C(=O)C3CC3)[C@H]2CNC(=O)NC(C)C)cc1`, the AC50 [3] is reported as 0.558 µM (active).

In the case of `Cc1ccc(C)c(C(=O)COc2ncnc3ccccc23)c1`, the IC50 [4] is reported as 15.1 µM (active).

With `O=c1cc(CSc2nc(NCc3ccccc3)c3ccccc3n2)nc2ccc(Cl)cn12` the IC50 [5] was 26 µM (inactive).

With `Oc1nc(CSc2ccccn2)nc2c1oc1ccccc12` the AC50 [6] was 5.23 µM (active), the AC50 [7] was > 52 µM (inactive) and the EC50 [8] was > 260 µM (inconclusive). The AC50 [9] was 6.77 µM (active).

For `O=C1c2ccccc2C(O)(c2ccccc2)N1c1ccc([N+](=O)[O-])cc1Cl` (stereo not given), the IC50 [10] was 60.8 µM (active).

With `Oc1cc(O)c2sc(Nc3ccc(F)cc3)nc2n1` the IC50 [1] was > 50 µM (not active).

With `O=C1NC(=O)C(=Cc2c[nH]nc2-c2ccccc2)C(=O)N1` the IC50 [10] was 53 µM (active).

With `Cc1noc(NS(=O)(=O)c2ccc(NC(=O)c3ccccc3NS(=O)(=O)c3ccc(F)cc3)cc2)c1C` the IC50 [10] was 40.9 µM (active).

With `CCc1ccc(S(=O)(=O)NCc2cn3cccc(C)c3n2)s1` the IC50 [4] was 13.8 µM (active).

With `COc1ccc(-c2cc(C(=O)Nc3cc(Br)ccc3O)no2)cc1` the IC50 [5] was 2.09 µM (active).

For `CCc1ccc2oc(C(=O)NCC(c3ccc(OC)cc3)N3CCCCC3)c(C)c2c1` (stereo not given), the IC50 [4] was 2.29 µM (active) and the AC50 [11] was 3.23 µM (active).

In the case of `COCCn1c(C)cc(C(=O)CSc2nnnn2C2CCCC2)c1C`, the AC50 [6] is reported as 3.39 µM (active) and the AC50 [9] is reported as 2.78 µM (active).

For `COc1ccc(N2C(=O)C(Cl)=C(N3CCOCC3)C2=O)cc1`, the EC50 [12] was 3 µM (active), the IC50 [10] was 33.1 µM (active) and the AC50 [13] was 10.8 µM (active).

With `Cc1nnsc1Sc1cccc(C(F)(F)F)c1` the AC50 [3] was 8.67 µM (active).

With `C(=C\c1nc(N2CCCC2)c2ccccc2n1)/c1ccccc1` the IC50 [5] was 8.49 µM (active).

In the case of `Nc1c(C(=O)N/N=C/c2ccc(OCc3ccccc3)cc2)cnn1-c1ccccc1`, the EC50 [14] is reported as 21.9 µM (active), the EC50 [15] is reported as > 120 µM (not active) and the EC50 [16] is reported as 11.9 µM (active). The IC50 [5] was 25.9 µM (inactive).

For `COc1ccc(C2(O)CCN(C(=O)NC3CCCCC3)CC2)cc1`, the IC50 [4] was 14.5 µM (active).
